Usually viability stands for a read-out of living cells in per cent, often relative to untreated cells.

Three compounds from patent US20170304388A1, “NEW INDICATION OF CARDIOVASCULAR DRUGS FOR PREPARATION OF CANCER INHIBITION PHARMACEUTICAL COMPOSITION” (LAUNX BIOMEDICAL CO., LTD., priority 2014, published 2017) can be followed below.

Holding throughout (format): cell-based
Data set [1] has as its system A375 (Amelanotic Melanoma). The data set can be described thus: Cell viability analysis (WST-1), A375. As to conditions: Table 4, repeated experiments, drug 10 μM; for viability at 10 µM: Homo sapiens, A-375, 72 h, WST-1, read-out: survival rate (viability) of cancer cells, A375. (In general: Tetrazolium assays rely on reduction of a dye to a coloured formazan, in cell work by metabolically active cells.)

The subject of data set [2] is HCT116 (Colorectal Carcinoma). The data set can be described thus: Cell viability analysis (WST-1), HCT116. As to conditions: Homo sapiens, HCT-116, 72 h, Table 4, repeated experiments, drug 10 μM, WST-1, read-out: survival rate (viability) of cancer cells, HCT116.
Data set [3] has as its system HepG2 (Hepatocellular Carcinoma). Put plainly: Cell viability analysis (WST-1), HepG2. Particulars: Table 4, repeated experiments, drug 10 μM; for viability at 10 µM: Homo sapiens, HepG2, 72 h, WST-1, read-out: survival rate (viability) of cancer cells, HepG2.
The subject of data set [4] is AGS (Gastric Adenocarcinoma). The data set can be described thus: Cell viability analysis (WST-1), AGS. As to conditions: Table 4, repeated experiments, drug 10 μM; for viability at 10 µM: 72 h, WST-1, read-out: survival rate (viability) of cancer cells, AGS.
Data set [5] deals with H1650 (Lung Adenocarcinoma). Put plainly: Cell viability analysis (WST-1), H1650. As to conditions: Table 4, repeated experiments, drug 10 μM.
The test system of data set [6] is MKN-45 (Gastric Adenocarcinoma). Put plainly: Cell viability analysis (WST-1), MKN-45. Particulars: Table 4, repeated experiments, drug 10 μM; for viability at 10 µM: Homo sapiens, MKN-45, 72 h, WST-1, read-out: survival rate (viability) of cancer cells, MKN-45.
Data set [7] relates to TSGH-8301 (Urinary Bladder Carcinoma). The data set can be described thus: Cell viability analysis (WST-1), TSGH-8301. Particulars: Table 4, repeated experiments, drug 10 μM; for viability at 10 µM: 72 h, WST-1, read-out: survival rate (viability) of cancer cells, TSGH-8301.
For data set [8], the system named is A549 (Lung Adenocarcinoma). Put plainly: Cell viability analysis (WST-1), A549. Particulars: Table 4, repeated experiments, drug 10 μM; for viability at 10 µM: Homo sapiens, A549, 72 h, WST-1, read-out: survival rate (viability) of cancer cells, A549.
Data set [9] deals with MCF7 (Mammary Gland, Adenocarcinoma). The data set can be described thus: Cell viability analysis (WST-1), MCF7. As to conditions: Homo sapiens, MCF7, 72 h, Table 4, repeated experiments, drug 10 μM, WST-1, read-out: survival rate (viability) of cancer cells, MCF-7.
The test system of data set [10] is PC3 (Prostate Adenocarcinoma). The data set can be described thus: Cell viability analysis (WST-1), PC3. As to conditions: 72 h, Table 4, repeated experiments, drug 10 μM, WST-1, read-out: survival rate (viability) of cancer cells, PC-3.
Data set [11] has as its system LoVo (Colorectal Adenocarcinoma). The data set can be described thus: Cell viability analysis (WST-1), LoVo. As to conditions: Homo sapiens, LoVo, 72 h, Table 4, repeated experiments, drug 10 μM, WST-1, read-out: survival rate (viability) of cancer cells, LoVo.
For a further data set, the system named is T24. The data set can be described thus: Cell viability analysis (WST-1), T24. As to conditions: Table 4, repeated experiments, drug 10 μM; for viability at 10 µM: Homo sapiens, T-24, 72 h, read-out: survival rate (viability) of cancer cells, T24. As for the experimental part: (§1) Subculture the different types of cancer cells. The cancer cells includes lung cancer, gastric cancer, hepatic cancer, colon cancer, skin cancer, cervical cancer, prostate cancer, bladder cancer, breast cancer, leukemia, pancreatic cancer, ovarian cancer, tongue cancer, osteosarcoma, and renal cancer. The cell numbers were counted and reseed as 2×10^6 in cell culture plate/flask. Then, the culture medium for culturing the cell lines was added to a volume of 10 ml, and the cells were cultured for 2-3 days. Then, the cells were suspended for loading into 96-well plates. The cell number was 3000 cells and the volume of the culture medium was 100 ul each well.
(§2) Removing the original culture medium from 96-well plate. Then add 100 μl of commercially drug at a concentration of 10 μM per well. After 72 hours, add the diluted WST-1 reagent to the well with 100 μl/well, and the diluted WST-1 reagent was acquired from the dilution of 9:1 medium and WST-1 stock reagent. Finally, the total volume of each well are 200 μl/well. Culture the 96-well plate at 37° C. for 30 to 90 minutes. Detecting and calculating the survival rate of each cancer cells with an ELISA reader at OD450 nm. The lower viability of cancer cells represents better inhibition effect via the drugs. Otherwise, the higher viability of cancer cells represents worse inhibition effect via the drugs.
(§3) According to the above mentioned cardiovascular drugs for cancer growth inhibition in Table 3, the inventors took the repeat experiments for the cardiovascular drugs to check the growth inhibitory effects of cancer cells by the cardiovascular drugs. […] 4.

A further data set has as its system Hep3B. The data set can be described thus: Cell viability analysis (WST-1), Hep3B. As to conditions: Table 4, repeated experiments, drug 10 μM; for viability at 10 µM: Homo sapiens, Hep3B, 72 h, read-out: survival rate (viability) of cancer cells, Hep3B. As for the experimental part:
as §1, §2, §3

The next data set relates to C-33A. The data set can be described thus: Cell viability analysis (WST-1), C-33A. As to conditions: Homo sapiens, C-33-A, 72 h, Table 4, repeated experiments, drug 10 μM, read-out: survival rate (viability) of cancer cells, C-33A. The procedure: as §1, §2, §3
For another data set, the system named is MDA-MB231. The data set can be described thus: Cell viability analysis (WST-1), MDA-MB231. Particulars: Homo sapiens, MDA-MB-231, 72 h, Table 4, repeated experiments, drug 10 μM, read-out: survival rate (viability) of cancer cells, MDA-MB231.
In another data set the test system is NIH-OVCAR-3. Put plainly: Cell viability analysis (WST-1), NIH-OVCAR-3. Particulars: Homo sapiens, OVCAR-3, 72 h, Table 4, repeated experiments, drug 10 μM, read-out: survival rate (viability) of cancer cells, NIH-OVCAR-3. As for the experimental part: as §1, §2, §3
The subject of a further data set is TOV-21G. The data set can be described thus: Cell viability analysis (WST-1), TOV-21G. As to conditions: Table 4, repeated experiments, drug 10 μM; for viability at 10 µM: Homo sapiens, TOV21G, 72 h, read-out: survival rate (viability) of cancer cells, TOV-21G. As for the experimental part: as §1, §2, §3
The subject of another data set is AsPC-1. Put plainly: Cell viability analysis (WST-1), AsPC-1. Particulars: Homo sapiens, ASPC1, 72 h, Table 4, repeated experiments, drug 10 μM, read-out: survival rate (viability) of cancer cells, AsPC-1. As for the experimental part:
as §1, §2, §3

In another data set the test system is BxPC-3. Put plainly: Cell viability analysis (WST-1), BxPC-3. Particulars: Table 4, repeated experiments, drug 10 μM; for viability at 10 µM: Homo sapiens, BXPC-3, 72 h, read-out: survival rate (viability) of cancer cells, BxPC-3. As for the experimental part: as §1, §2, §3
The next data set concerns SAS. The data set can be described thus: Cell viability analysis (WST-1), SAS. As to conditions: Table 4, repeated experiments, drug 10 μM; for viability at 10 µM: 72 h, read-out: survival rate (viability) of cancer cells, SAS. As for the experimental part: as §1, §2, §3
The test system of a further data set is U2OS. The data set can be described thus: Cell viability analysis (WST-1), U2OS. As to conditions: Table 4, repeated experiments, drug 10 μM; for viability at 10 µM: Homo sapiens, U2OS, 72 h, read-out: survival rate (viability) of cancer cells, U2OS. As for the experimental part:
as §1, §2, §3

Another data set concerns BCC. Put plainly: Cell viability analysis (WST-1), BCC. As to conditions: Table 4, repeated experiments, drug 10 μM.
For another data set, the system named is 786-O. The data set can be described thus: Cell viability analysis (WST-1), 786-O. As to conditions: Table 4, repeated experiments, drug 10 μM; for viability at 10 µM: Homo sapiens, 786-0, 72 h, read-out: survival rate (viability) of cancer cells, 786-O. The procedure: as §1, §2, §3
For the next data set, the system named is cancer cell lines. The data set can be described thus: Growth inhibitory effects on the panel of cancer cell lines. Particulars: drug 10 μM, 72 hours, WST-1.
Data set [12] concerns HeLa (Cervix Adenocarcinoma). Put plainly: Cell viability analysis (WST-1), HeLa. As to conditions: Homo sapiens, HeLa, 72 h, Table 4, repeated experiments, drug 10 μM, WST-1, read-out: survival rate (viability) of cancer cells, HeLa.

Structures can show the parent of a compound that is named as a salt.

On to `CCOC(=O)C1=C(COCCN)NC(C)=C(C(=O)OC)C1c1ccccc1Cl` (centres unmarked) [Amlodipine besylate (Norvase), Amlodipine besylate], for which, in [1] (72 hours, WST-1), the “survival rate (viability) of cancer cells, A375” value turned out to be 136.6675. Besides, the viability at 10 µM in data set [2] came to 78.3%; in data set [9] it was 80.5%; in data set [10], 73.6%; in [11], 85.6%; with C-33A it was 33.7%; in the data set with MDA-MB231, 82.7%. In addition, the results for the viability at 10 µM in the data set with NIH-OVCAR-3 and in the data set on AsPC-1 were 91.6% and 87.8%, respectively. Moreover, the “survival rate (viability) of cancer cells, HepG2” value in data set [3] (72 hours, WST-1) is recorded as 95.01. The “survival rate (viability) of cancer cells, AGS” value in [4] (72 hours, WST-1) is given as 12.18. Besides, in data set [5] (72 hours, WST-1), the “survival rate (viability) of cancer cells, H1650” value was 110.2477. For the same compound, the “survival rate (viability) of cancer cells, MKN-45” value in data set [6] (72 hours, WST-1) worked out at 86.43. In addition, the “survival rate (viability) of cancer cells, TSGH-8301” value in data set [7] (72 hours, WST-1) was 36.2492. Besides, the “survival rate (viability) of cancer cells, A549” value in data set [8] (72 hours, WST-1) turned out to be 110.3104. Besides, in the data set on T24 (72 hours), the “survival rate (viability) of cancer cells, T24” value is recorded as 93.08. Further, the “survival rate (viability) of cancer cells, Hep3B” value in the data set on Hep3B (72 hours) was 123.4192. The “survival rate (viability) of cancer cells, TOV-21G” value with TOV-21G (72 hours) stood at 93.55. Moreover, the “survival rate (viability) of cancer cells, BxPC-3” value in the data set on BxPC-3 (72 hours) was 99.11. For the same compound, the “survival rate (viability) of cancer cells, SAS” value in the data set on SAS (72 hours) is 94.7983. The “survival rate (viability) of cancer cells, U2OS” value in the data set with U2OS (72 hours) came to 71.06. Moreover, the “survival rate (viability) of cancer cells, BCC” value with BCC (72 hours) is recorded as 102.9778. Besides, in the data set with 786-O (72 hours), the “survival rate (viability) of cancer cells, 786-O” value was determined as 73.16. For the same compound, the “inhibition effect on different cancer cell lines (in words)” value with cancer cell lines is reported as “significant inhibition effect”.
With `COC(=O)C1=C(C)NC(C)=C(C(=O)OC2CCCN(Cc3ccccc3)C2)C1c1cccc([N+](=O)[O-])c1` (centres unmarked) [Benidipine hydrochloride], the viability at 10 µM is 76% in data set [1]; 90.6% in data set [2]; 83.6% in [3]; 92.9% in data set [12]; 87.8% in [4]; 64.5% in data set [5] (Homo sapiens, NCI-H1650, 72 h, WST-1, read-out: survival rate (viability) of cancer cells, H1650). The viability at 10 µM worked out at 92.9% in [6]; 81.5% in data set [7]; 70.3% in data set [8]; 77.3% in data set [9]; 88.5% in data set [10]; 69% in [11]. In addition, the viability at 10 µM in the data set on T24 was 61%; in the data set with Hep3B it was 98.8%; in the data set with C-33A, 105%; with MDA-MB231, 77.3%; with NIH-OVCAR-3 it was 85.2%; in the data set on TOV-21G, 47.5%. Also, the viability at 10 µM in the data set with AsPC-1 turned out to be 63.4%; with BxPC-3, 73.8%; in the data set with SAS, 64.5%; in the data set with U2OS, 54.2%; with 786-O, 78.9%. In addition, the “inhibition effect on different cancer cell lines (in words)” value in the data set on cancer cell lines is “significant inhibition effect”.
In the case of `COc1cc2nc(N3CCN(C(=O)c4ccco4)CC3)nc(N)c2cc1OC` [Prazosin HCl], the viability at 10 µM in [1] came out at 77.9%; in data set [2], 96.4%; in [3] it was 87.2%; in [12], 90.9%; in data set [4] it was 86.8%; in data set [6] it was 70.1%. Moreover, the viability at 10 µM in data set [7] was determined as 99.8%; in data set [8], 72.2%; in data set [9], 87.6%; in data set [11], 95.7%; in the data set on T24 it was 88.5%; in the data set on Hep3B it was 116%. Besides, the viability at 10 µM worked out at 97.2% in the data set on C-33A; 85.1% in the data set with MDA-MB231; 88.9% in the data set on NIH-OVCAR-3; 91.9% in the data set on TOV-21G; 80.4% in the data set with AsPC-1; 54% with BxPC-3. The viability at 10 µM stood at 114% in the data set on SAS; 98% in the data set on U2OS; 73.5% in the data set with BCC (BCC, 72 h, read-out: survival rate (viability) of cancer cells, BCC); 79.5% in the data set on 786-O. Besides, the “inhibition effect on different cancer cell lines (in words)” value with cancer cell lines was “significant inhibition effect”.
